According to patent publication US10519114B2, “Peptidomimetics and methods of using the same” (The Regents of the University of Michigan, priority 2016, dated 2019):

Columns and labels:
[1] = target: T1, human κ (CHO-KOR) opioid receptor (Homo sapiens, UniProt P41145); test: Radioligand binding assay, [3H]diprenorphine displacement, KOR; conditions: displacement of 0.2 nM [3H]diprenorphine, CHO-KOR membranes; mean ± standard error
T1 construct: expressed in transfected cells
Method: (§1) In Vitro Pharmacology-Cell Lines and Membrane Preparations. All tissue culture reagents were purchased from Gibco Life Sciences (Grand Island, N.Y., U.S.). C6-rat glioma cells stably transfected with a rat μ (C6-MOR) or rat δ (C6-DOR) opioid receptor20 and Chinese hamster ovary (CHO) cells stably expressing a human K (CHO-KOR) opioid receptor21 were used for all in vitro assays. Cells were grown to confluence at 37° C. in 5% CO2 in Dulbecco's modified Eagle medium containing 10% fetal bovine serum and 5% penicillin/streptomycin. Membranes were prepared by washing confluent cells three times with ice cold phosphate buffered saline (0.9% NaCl, 0.61 mM Na2HPO4, 0.38 mM KH2PO4, pH 7.4). Cells were detached from the plates by incubation in warm harvesting buffer (20 mM HEPES, 150 mM NaCl, 0.68 mM EDTA, pH 7.4) and pelleted by centrifugation at 200 g for 3 min. The cell pellet was suspended in ice-cold 50 mM Tris-HCl buffer, pH 7.4, and homogenized with a Tissue Tearor (Biospec Products, Inc., Bartlesville, Okla., U.S.) for 20 s at setting 4. The homogenate was centrifuged at 20 000 g for 20 min at 4° C., and the pellet was rehomogenized in 50 mM Tris-HCl with a Tissue Tearor for 10 s at setting 2, followed by recentrifugation. The final pellet was resuspended in 50 mM Tris-HCl and frozen in aliquots at […]. Protein concentration was determined via Bradford assay using bovine serum albumin as the standard.
(§2) Radioligand Binding Assays. Radioactive compounds were purchased from Perkin-Elmer (Waltham, Mass., U.S.). Opioid ligand binding assays were performed using competitive displacement of 0.2 nM [3H]diprenorphine (250 μCi, 1.85 TBq/mmol) by the test compound from membrane preparations containing opioid receptors. The assay mixture, containing membrane suspension (20 μg protein/tube) in 50 mM Tris-HCl buffer (pH 7.4), [3H]diprenorphine, and various concentrations of test peptide, was incubated at room temperature for 1 h to allow binding to reach equilibrium. The samples were rapidly filtered through Whatman GF/C filters using a Brandel harvester (Brandel, Gaithersburg, Md., U.S.) and washed three times with 50 mM Tris-HCl buffer. The radioactivity retained on dried filters was determined by liquid scintillation counting after saturation with EcoLume liquid scintillation cocktail in a Wallac 1450 MicroBeta (Perkin-Elmer, Waltham, Mass., U.S.). Nonspecific binding was determined using 10 μM naloxone. Inhibitory constant (Ki) values were calculated using nonlinear regression analysis to fit a logistic equation to the competition data using GraphPad Prism, version 5.01, for Windows (GraphPad Software Inc., La Jolla, Calif.). The results presented are the mean±standard error from at least three separate assays performed in duplicate.

[2] = target: T2, rat δ (C6-DOR) opioid receptor (Rattus norvegicus, UniProt P33533); test: Radioligand binding assay, [3H]diprenorphine displacement, DOR; conditions: displacement of 0.2 nM [3H]diprenorphine, C6-DOR membranes; mean ± standard error
T2 construct: expressed in transfected cells
T2 sequence (P33533 whole entry): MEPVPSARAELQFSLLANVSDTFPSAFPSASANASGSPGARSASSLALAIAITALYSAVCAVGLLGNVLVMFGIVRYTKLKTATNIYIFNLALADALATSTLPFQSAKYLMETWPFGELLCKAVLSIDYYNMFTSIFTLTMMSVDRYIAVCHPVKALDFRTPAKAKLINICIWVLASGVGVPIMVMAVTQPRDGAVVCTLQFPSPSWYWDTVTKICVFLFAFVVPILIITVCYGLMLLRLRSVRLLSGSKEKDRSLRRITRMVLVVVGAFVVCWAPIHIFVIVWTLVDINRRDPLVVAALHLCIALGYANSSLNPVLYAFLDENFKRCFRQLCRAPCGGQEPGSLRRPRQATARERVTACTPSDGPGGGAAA
Method: as §1, §2

[3] = target: T3, rat μ (C6-MOR) opioid receptor (Rattus norvegicus, UniProt P33535); test: Radioligand binding assay, [3H]diprenorphine displacement, MOR; conditions: displacement of 0.2 nM [3H]diprenorphine, C6-MOR membranes; mean ± standard error
T3 construct: expressed in transfected cells
T3 sequence (P33535 whole entry): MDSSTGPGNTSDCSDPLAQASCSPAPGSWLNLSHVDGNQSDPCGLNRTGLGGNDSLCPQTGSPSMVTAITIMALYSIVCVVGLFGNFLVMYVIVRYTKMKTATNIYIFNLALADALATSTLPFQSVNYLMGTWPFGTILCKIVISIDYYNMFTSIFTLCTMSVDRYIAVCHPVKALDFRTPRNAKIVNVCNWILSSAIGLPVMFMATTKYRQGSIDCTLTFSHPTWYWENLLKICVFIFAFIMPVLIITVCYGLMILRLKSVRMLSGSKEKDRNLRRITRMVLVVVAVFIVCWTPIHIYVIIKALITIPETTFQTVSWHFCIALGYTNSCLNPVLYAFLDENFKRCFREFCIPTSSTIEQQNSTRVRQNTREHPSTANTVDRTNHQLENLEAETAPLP
Method: as §1, §2

[4] = target: T2, rat δ (C6-DOR) opioid receptor; test: Stimulation of [35S]GTPγS binding, DOR; format: biochemical; conditions: for Emax: [35S]GTPγS maximal stimulation compared with 10 μM standard DPDPE; for EC50: [35S]GTPγS binding, C6-DOR membranes, mean ± standard error
Method: as §1
(§3) Stimulation of [^35S]GTPyS Binding. Agonist stimulation of [35S]guanosine 5′-O-[γ-thio]triphosphate ([^35S]GTPγS, 1250 Ci, 46.2 TBq/mmol) binding was measured as described previously Briefly, membranes (10-20 μg of protein/tube) were incubated 1 h at room temperature in GTPyS buffer (50 mM Tris-HCl, 100 mM NaCl, 5 mM MgCl2, pH 7.4) containing 0.1 nM [^35S]GTPγS, 30 μM guanosine diphosphate (GDP), and varying concentrations of test peptides. Peptide stimulation of [^35S]GTPyS was compared with 10 μM standard compounds [D-Ala^2,N-MePhe^4,Gly-ol]encephalin (DAMGO) at MOR, D-Pen^2,5-enkephalin (DPDPE) at DOR, or […] at KOR. The reaction was terminated by rapidly filtering through GF/C filters and washing 10 times with GTPyS buffer, and retained radioactivity was measured as described above. The results presented are the mean±standard error from at least three separate assays performed in duplicate; maximal stimulation was determined using nonlinear regression analysis with GraphPad Prism (GraphPad Software Inc., La Jolla, Calif.).

[5] = target: T1, human κ (CHO-KOR) opioid receptor; test: Stimulation of [35S]GTPγS binding, KOR; format: biochemical; conditions: for Emax: [35S]GTPγS maximal stimulation compared with 10 μM standard U-69,593; for EC50: [35S]GTPγS binding, CHO-KOR membranes, mean ± standard error
Method: as §1, §3

[6] = target: T3, rat μ (C6-MOR) opioid receptor; test: Stimulation of [35S]GTPγS binding, MOR; format: biochemical; conditions: for Emax: [35S]GTPγS maximal stimulation compared with 10 μM standard DAMGO; for EC50: [35S]GTPγS binding, C6-MOR membranes, mean ± standard error
Method: as §1, §3

T1 sequence (P41145 whole entry): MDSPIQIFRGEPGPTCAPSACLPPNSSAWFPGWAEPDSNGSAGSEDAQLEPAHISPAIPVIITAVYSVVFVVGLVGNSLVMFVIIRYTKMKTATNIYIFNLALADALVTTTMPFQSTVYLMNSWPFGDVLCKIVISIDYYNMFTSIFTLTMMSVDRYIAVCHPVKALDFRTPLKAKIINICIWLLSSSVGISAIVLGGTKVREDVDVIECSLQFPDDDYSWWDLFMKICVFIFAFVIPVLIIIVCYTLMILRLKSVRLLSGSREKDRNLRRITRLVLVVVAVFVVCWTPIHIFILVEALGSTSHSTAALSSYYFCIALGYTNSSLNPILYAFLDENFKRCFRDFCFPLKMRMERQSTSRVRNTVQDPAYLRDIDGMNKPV

Row | Structure (SMILES) | Ki [1] [nM] | Ki [2] [nM] | Ki [3] [nM] | Emax [4] [%] | Emax [5] [%] | Emax [6] [%] | EC50 [4] [nM] | EC50 [5] [nM] | EC50 [6] [nM]
1 | Cc1cc(O)cc(C)c1C[C@H](N)C(=O)N[C@H]1CCNc2ccc(Cc3ccc(F)cc3)cc21 [Compound 1010] | 90 | 190 | 10 | 12 | 0 | 58 | – | – | –
2 | CCCCCCc1ccc2c(c1)[C@H](NC(=O)[C@@H](N)Cc1c(C)cc(O)cc1C)CCN2 [Compound 1011] | 15.1 ± 5.7 | 5.89 ± 0.76 | 0.13 ± 0.02 | 2.5 ± 2.5 | 34.6 ± 1.11 | 35.9 ± 5.28 | 1.7 | 773 ± 26.5 | 2.41 ± 0.81
3 | CCCCCCc1ccc2c(c1)[C@@H](NC(=O)[C@@H](N)Cc1c(C)cc(O)cc1C)CCN2 [Compound 1012] | 3900 | 1240 ± 438 | 297 ± 72 | 22 | 0 | 18 | > 10000 | – | > 1000
4 | CCCCCc1ccc2c(c1)[C@H](NC(=O)[C@@H](N)Cc1c(C)cc(O)cc1C)CCN2 [Compound 1013] | 22.5 ± 10.3 | 8.81 ± 2.89 | 0.22 ± 0.09 | 0 | 23.7 ± 0.83 | 20.2 ± 7.11 | – | 543 ± 148 | 12 ± 5.77
5 | Cc1cc(O)cc(C)c1C[C@H](N)C(=O)N[C@@H]1C[C@@H](C)Nc2ccc(Cc3ccccc3)cc21 [Compound 1014] | 238 ± 21.7 | 87.2 ± 56.2 | 1.24 ± 0.5 | 44.9 ± 8.25 | 28.9 ± 12.3 | 87.8 ± 2 | 627 ± 88.9 | 4070 | 8.93 ± 4
6 | Cc1cc(O)cc(C)c1C[C@H](N)C(=O)N(C1CC1)[C@@H]1CCNc2ccc(Cc3ccccc3)cc21 [Compound 1015] | 58.9 ± 28.5 | 23.4 ± 10.9 | 25.6 ± 9.83 | 19.5 ± 2.83 | -1.84 ± 1.83 | 15.8 ± 3.75 | 149 ± 42 | – | 131 ± 21.2
7 | Cc1cc(O)cc(C)c1C[C@H](N)C(=O)N(C1CC1)C1CCNc2ccc(Cc3ccccc3)cc21 (stereo partly shown) [Compound 1016] | 28.6 ± 7.24 | 52.5 ± 17.8 | 5.33 ± 2.43 | 0.82 ± 3.63 | -0.01 ± 0.01 | 40.1 ± 10.7 | – | – | 28.4 ± 4.4
8 | Cc1cc(O)cc(C)c1C[C@H](N)C(=O)NC1CCNc2ccc(Oc3ccccc3)cc21 (stereo partly shown) [Compound 1017] | 65.5 ± 9.66 | 13.9 ± 6.7 | 0.42 ± 0.04 | 9.8 ± 5.49 | 23.6 | 68 ± 2.33 | 108 ± 53.3 | 957 | 14.9 ± 5.37
9 | CC(=O)N1CC[C@@H](NC(=O)[C@@H](N)Cc2c(C)cc(O)cc2C)c2cc(Oc3ccccc3)ccc21 [Compound 1019] | 32.98 ± 0.1 | 4.21 ± 1.26 | 0.1 ± 0.02 | 15.8 | 37.3 | 76.6 ± 2.66 | 222 | 1080 | 6.49 ± 3.21
